Data taken from US10492511B2, “Preparations” (Symrise AG, priority 2012, dated 2019).

Tests used:
[1] = Reduction in apatite solubility (ALR), lactic acid consumption at pH 5; conditions: 0.5 g hydroxyapatite in 300 ml water, 37° C., pH 5, 2 hours
Description: In order to determine the reduction in apatite stability, a blind test was first conducted. For this purpose, a reaction vessel with 300 ml of desalinated water was temperature-controlled to 37° C., and 0.5 g of hydroxyapatite powder (spec. surface area 60 m^2/g, Merck) was suspended therein. The pH value of the suspension was kept at a constant value of 5 by means of an automatic burette used to add lactic acid. The amount of 0.1 molar lactic acid consumed in order to stabilize the pH was registered with a recorder.
The reduction in apatite solubility (ALR in %) caused by the active ingredient was calculated as follows: ALR (%)=(Lu−Lb)*100/Lu (%)

[2] = Inhibition of crystal growth (KWI) of hydroxyapatite, KOH consumption at pH 7.4; conditions: 100 mg hydroxyapatite, pH 7.4, 2 hours
Description: In order to determine inhibition of crystal growth (KWI in %) by hydroxyapatite, a blind test was also first conducted. For this purpose, a reaction vessel with 400 ml of a 0.0008 molar solution of KH2PO4 and 45 ml of a 0.012 molar solution of CaCl2 was prepared. This solution was adjusted to a pH of 7.4 by titration with a 0.05 molar solution of KOH. After a stable pH value had been maintained for at least 30 minutes, 100 mg of hydroxyapatite powder (spec. surface area 60 m^2/g, Merck) was added. The pH value of the suspension was kept at a constant value of 7.4 by means of an automatic burette which can be used to add 0.05 molar KOH solution. The amount of 0.05 molar KOH solution consumed in order to stabilize the pH was registered with a recorder. The consumption of KOH solution (Ku) registered after 2 hours was equivalent to the formation of hydroxyapatite (growth of crystals in the suspension).
Inhibition of crystal growth by the active ingredient was calculated as follows: KWI (%)=(Ku−Kb)*100/Ku (%)

[3] = 30 mg active ingredient mixture
[4] = 150 mg active ingredient mixture

| Compound | Apatite solubility [%] [1, 3] | Apatite solubility [%] [1, 4] | Crystal growth inhibition [%] ([2]; 5 mg active ingredient) | Crystal growth inhibition [%] ([2]; 6 mg active ingredient) |
| --- | --- | --- | --- | --- |
| COC(=O)C(C)O (centres unmarked) [Example V9, Methyl lactate] | 5% | 12% | 10% | 14% |
| CC1CCC(C(C)C)C2(C1)OCC(CO)O2 (centres unmarked) [Example V10, Menthone glyceryl acetal] | – | 13% | 9% | 17% |
| Cc1ccc(C(C)C)c(OCC(=O)N(Cc2cccs2)c2cc[nH]n2)c1 [Example V11, 2-(2-isopropyl-5-methylphenoxy)-N-(1H-pyrazol-3-yl)-N-(thiophen-2-yl)-methylacetamide] | 5% | 14% | 11% | 16% |
